From patent publication US8222420B2, “Nitrogen-containing compounds and harmful organism control agents” (Nippon Soda Co., Ltd., priority 2009, dated 2012)

Experiments:
[1] = tested on: Tetranychus urticae resistant to organic phosphorous agents; test: Efficacy against Tetranychus urticae (spray on kidney bean plants); type: in vivo; conditions: 500 ppm wettable powder sprayed on kidney bean plants with female adults; 25° C., humidity 65%; 3 days later
Description: After inoculating the first true leaves of kidney bean plants planted in a no. 3 pot for which 7 to 10 days had elapsed since germination with 17 female adult Tetranychus urticae resistant to organic phosphorous agents, a chemical liquid diluted with water to a compound concentration of 500 ppm was sprayed onto the kidney bean plants in accordance with the formula of the wettable powder indicated in the aforementioned Preparation Example 1. The kidney bean plants were placed in a constant temperature chamber at a temperature of 25° C. and humidity of 65% and insect mortality rate was investigated 3 days later. The test was repeated twice.

Aphis gossypii = test: Efficacy against Aphis gossypii (spray on infested cucumber plants); type: in vivo; conditions: 500 ppm emulsion sprayed on cucumber plants infested with nymphs; 25° C., humidity 65%; 5 days later
Description: Cucumber plants planted in a no. 3 pot for which 10 days had elapsed since germination were inoculated with adult Aphis gossypii. The adult insects were removed after 1 day, and a chemical liquid diluted with water to a compound concentration of 500 ppm was sprayed onto the cucumber plants infested with nymphs laid by the adults in accordance with the emulsion formula indicated in the aforementioned Preparation Example 2. The cucumber plants were placed in a constant temperature chamber at a temperature of 25° C. and humidity of 65% and insect viability was investigated 5 days later followed by determination of insect mortality rate. The test was repeated twice.

Structure (SMILES) | insect mortality rate [1] [%] | insect mortality rate (Aphis gossypii) [%]
Cc1cc(Cl)ccc1N=CN(C)C [chlordimeform] | 40 | –
Cc1nc(N(C)C)nc(OC(=O)N(C)C)c1C [pirimicarb] | – | 9
